Reference: article PMC11576293, “New series of 4,6-diaryl pyrimidines: facile synthesis and antiproliferative activity as dual EGFR/VEGFR-2 inhibitors” (Frontiers in Chemistry, 2024)

What was measured:
Assay in all cases: NCI-60 single-dose screen
Assay type in all cases: cell-based
786-0 = conditions: Homo sapiens, single dose 10 µM, '-' = no inhibition, read-out: % Growth Inhibition
Summary of the method: (§1)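 Single concentration (10 μM) per compound, assayed by the NCI DTP against its 60-line panel covering leukemia, lung, colon, CNS, melanoma, ovarian, renal, prostate and breast cancers.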

A498 = conditions: Homo sapiens, single dose 10 µM, '-' = no inhibition, read-out: % Growth Inhibition
Summary of the method: as §1

A549/ATCC = conditions: Homo sapiens, single dose 10 µM, '-' = no inhibition, read-out: % Growth Inhibition
Summary of the method: as §1

ACHN 1 = conditions: Homo sapiens, single dose 10 µM, '-' = no inhibition, read-out: % Growth Inhibition
Summary of the method: as §1

CAKI-1 = conditions: Homo sapiens, single dose 10 µM, '-' = no inhibition, read-out: % Growth Inhibition
Summary of the method: as §1

CCRF-CEM = conditions: Homo sapiens, single dose 10 µM, '-' = no inhibition, read-out: % Growth Inhibition
Summary of the method: as §1

COLO 205 = conditions: Homo sapiens, single dose 10 µM, '-' = no inhibition, read-out: % Growth Inhibition
Summary of the method: as §1

DU-145 = conditions: Homo sapiens, single dose 10 µM, '-' = no inhibition, read-out: % Growth Inhibition
Summary of the method: as §1

EKVX = conditions: Homo sapiens, single dose 10 µM, '-' = no inhibition, read-out: % Growth Inhibition
Summary of the method: as §1

HCC-2998 = conditions: Homo sapiens, single dose 10 µM, '-' = no inhibition, read-out: % Growth Inhibition
Summary of the method: as §1

HCT-116 = conditions: Homo sapiens, single dose 10 µM, '-' = no inhibition, read-out: % Growth Inhibition
Summary of the method: as §1

HCT-15 = conditions: Homo sapiens, single dose 10 µM, '-' = no inhibition, read-out: % Growth Inhibition
Summary of the method: as §1

HOP-62 = conditions: Homo sapiens, single dose 10 µM, '-' = no inhibition, read-out: % Growth Inhibition
Summary of the method: as §1

HOP-92 = conditions: Homo sapiens, single dose 10 µM, '-' = no inhibition, read-out: % Growth Inhibition
Summary of the method: as §1

HS 578T = conditions: Homo sapiens, single dose 10 µM, '-' = no inhibition, read-out: % Growth Inhibition
Summary of the method: as §1

IGROV1 = conditions: Homo sapiens, IGROV-1, single dose 10 µM, '-' = no inhibition, read-out: % Growth Inhibition
Summary of the method: as §1

KM12 = conditions: Homo sapiens, single dose 10 µM, '-' = no inhibition, read-out: % Growth Inhibition
Summary of the method: as §1

LOX IMVI = conditions: Homo sapiens, single dose 10 µM, '-' = no inhibition, read-out: % Growth Inhibition
Summary of the method: as §1

M14 = conditions: Homo sapiens, single dose 10 µM, '-' = no inhibition, read-out: % Growth Inhibition
Summary of the method: as §1

MALME-3M = conditions: Homo sapiens, single dose 10 µM, '-' = no inhibition, read-out: % Growth Inhibition
Summary of the method: as §1

MCF7 = conditions: Homo sapiens, single dose 10 µM, '-' = no inhibition, read-out: % Growth Inhibition
Summary of the method: as §1

MDA-MB-468 = conditions: Homo sapiens, single dose 10 µM, '-' = no inhibition, read-out: % Growth Inhibition
Summary of the method: as §1

NCI-H23 = conditions: Homo sapiens, single dose 10 µM, '-' = no inhibition, read-out: % Growth Inhibition
Summary of the method: as §1

NCI-H322M = conditions: Homo sapiens, single dose 10 µM, '-' = no inhibition, read-out: % Growth Inhibition
Summary of the method: as §1

NCI-H460 = conditions: Homo sapiens, single dose 10 µM, '-' = no inhibition, read-out: % Growth Inhibition
Summary of the method: as §1

NCI-H522 = conditions: Homo sapiens, single dose 10 µM, '-' = no inhibition, read-out: % Growth Inhibition
Summary of the method: as §1

NCI/ADR-RES = conditions: Homo sapiens, single dose 10 µM, '-' = no inhibition, read-out: % Growth Inhibition
Summary of the method: as §1

OVCAR-3 = conditions: Homo sapiens, single dose 10 µM, '-' = no inhibition, read-out: % Growth Inhibition
Summary of the method: as §1

OVCAR-4 = conditions: Homo sapiens, single dose 10 µM, '-' = no inhibition, read-out: % Growth Inhibition
Summary of the method: as §1

OVCAR-5 = conditions: Homo sapiens, single dose 10 µM, '-' = no inhibition, read-out: % Growth Inhibition
Summary of the method: as §1

PC-3 = conditions: Homo sapiens, single dose 10 µM, '-' = no inhibition, read-out: % Growth Inhibition
Summary of the method: as §1

RPMI-8226 = conditions: Homo sapiens, single dose 10 µM, '-' = no inhibition, read-out: % Growth Inhibition
Summary of the method: as §1

RXF 393 = conditions: Homo sapiens, single dose 10 µM, '-' = no inhibition, read-out: % Growth Inhibition
Summary of the method: as §1

SF-268 = conditions: Homo sapiens, single dose 10 µM, '-' = no inhibition, read-out: % Growth Inhibition
Summary of the method: as §1

SF-295 = conditions: Homo sapiens, single dose 10 µM, '-' = no inhibition, read-out: % Growth Inhibition
Summary of the method: as §1

SF-539 = conditions: Homo sapiens, single dose 10 µM, '-' = no inhibition, read-out: % Growth Inhibition
Summary of the method: as §1

SK-MEL-28 = conditions: Homo sapiens, single dose 10 µM, '-' = no inhibition, read-out: % Growth Inhibition
Summary of the method: as §1

SK-MEL-2 = conditions: Homo sapiens, single dose 10 µM, '-' = no inhibition, read-out: % Growth Inhibition
Summary of the method: as §1

SK-MEL-5 = conditions: Homo sapiens, single dose 10 µM, '-' = no inhibition, read-out: % Growth Inhibition
Summary of the method: as §1

SK-OV-3 = conditions: Homo sapiens, single dose 10 µM, '-' = no inhibition, read-out: % Growth Inhibition
Summary of the method: as §1

SNB-19 = conditions: Homo sapiens, single dose 10 µM, '-' = no inhibition, read-out: % Growth Inhibition
Summary of the method: as §1

SNB-75 = conditions: Homo sapiens, single dose 10 µM, '-' = no inhibition, read-out: % Growth Inhibition
Summary of the method: as §1

SR = conditions: Homo sapiens, single dose 10 µM, '-' = no inhibition, read-out: % Growth Inhibition
Summary of the method: as §1

SW-620 = conditions: Homo sapiens, single dose 10 µM, '-' = no inhibition, read-out: % Growth Inhibition
Summary of the method: as §1

T-47D = conditions: Homo sapiens, T47D, single dose 10 µM, '-' = no inhibition, read-out: % Growth Inhibition
Summary of the method: as §1

U251 = conditions: Homo sapiens, U-251, single dose 10 µM, '-' = no inhibition, read-out: % Growth Inhibition
Summary of the method: as §1

UACC-62 = conditions: Homo sapiens, single dose 10 µM, '-' = no inhibition, read-out: % Growth Inhibition
Summary of the method: as §1

UO-31 = conditions: Homo sapiens, single dose 10 µM, '-' = no inhibition, read-out: % Growth Inhibition
Summary of the method: as §1

Structure (SMILES): CCCSc1nc(-c2ccc(Cl)cc2)cc(-c2ccc(OC)c(OC)c2)n1 [Compound 25, 4-(4-Chlorophenyl)-6-(3,4-dimethoxyphenyl)-2-(propylthio)pyrimidine]
- inhibition at 10 µM (786-0): < 0%
- inhibition at 10 µM (A498): < 0%
- inhibition at 10 µM (A549/ATCC): 17.3%
- inhibition at 10 µM (ACHN 1): 7.82%
- inhibition at 10 µM (CAKI-1): 13.5%
- inhibition at 10 µM (CCRF-CEM): 11.2%
- inhibition at 10 µM (COLO 205): 31.7%
- inhibition at 10 µM (DU-145): 17.6%
- inhibition at 10 µM (EKVX): 5.09%
- inhibition at 10 µM (HCC-2998): 4.26%
- inhibition at 10 µM (HCT-116): < 0%
- inhibition at 10 µM (HCT-15): 20.9%
- inhibition at 10 µM (HOP-62): < 0%
- inhibition at 10 µM (HOP-92): < 0%
- inhibition at 10 µM (HS 578T): < 0%
- inhibition at 10 µM (IGROV1): < 0%
- inhibition at 10 µM (KM12): 25.5%
- inhibition at 10 µM (LOX IMVI): 1.51%
- inhibition at 10 µM (M14): < 0%
- inhibition at 10 µM (MALME-3M): 7.34%
- inhibition at 10 µM (MCF7): 17.5%
- inhibition at 10 µM (MDA-MB-468): < 0%
- inhibition at 10 µM (NCI-H23): 2.74%
- inhibition at 10 µM (NCI-H322M): 4.54%
- inhibition at 10 µM (NCI-H460): < 0%
- inhibition at 10 µM (NCI-H522): 8%
- inhibition at 10 µM (NCI/ADR-RES): 11.2%
- inhibition at 10 µM (OVCAR-3): < 0%
- inhibition at 10 µM (OVCAR-4): 20.2%
- inhibition at 10 µM (OVCAR-5): 4.78%
- inhibition at 10 µM (PC-3): 6.31%
- inhibition at 10 µM (RPMI-8226): 10.8%
- inhibition at 10 µM (RXF 393): 8.5%
- inhibition at 10 µM (SF-268): 6.85%
- inhibition at 10 µM (SF-295): 5.66%
- inhibition at 10 µM (SF-539): 1.28%
- inhibition at 10 µM (SK-MEL-28): 17.4%
- inhibition at 10 µM (SK-MEL-2): 14.9%
- inhibition at 10 µM (SK-MEL-5): 0.38%
- inhibition at 10 µM (SK-OV-3): 2.94%
- inhibition at 10 µM (SNB-19): < 0%
- inhibition at 10 µM (SNB-75): 2.64%
- inhibition at 10 µM (SR): 24.9%
- inhibition at 10 µM (SW-620): 3.63%
- inhibition at 10 µM (T-47D): 34.5%
- inhibition at 10 µM (U251): 7.53%
- inhibition at 10 µM (UACC-62): 3.23%
- inhibition at 10 µM (UO-31): 8.18%

Structure (SMILES): COc1ccc(-c2cc(-c3ccc(Cl)cc3)nc(SC(C)C)n2)cc1OC [Compound 26, 4-(4-Chlorophenyl)-2-(isopropylthio)-6-(3,4-dimethoxyphenyl)pyrimidine]
- inhibition at 10 µM (786-0): < 0%
- inhibition at 10 µM (A498): < 0%
- inhibition at 10 µM (A549/ATCC): 0.02%
- inhibition at 10 µM (ACHN 1): < 0%
- inhibition at 10 µM (CAKI-1): 9.22%
- inhibition at 10 µM (CCRF-CEM): 1.08%
- inhibition at 10 µM (COLO 205): < 0%
- inhibition at 10 µM (DU-145): < 0%
- inhibition at 10 µM (EKVX): 4.59%
- inhibition at 10 µM (HCC-2998): < 0%
- inhibition at 10 µM (HCT-116): 2.84%
- inhibition at 10 µM (HCT-15): 4.73%
- inhibition at 10 µM (HOP-62): < 0%
- inhibition at 10 µM (HOP-92): < 0%
- inhibition at 10 µM (HS 578T): < 0%
- inhibition at 10 µM (IGROV1): < 0%
- inhibition at 10 µM (KM12): 1.72%
- inhibition at 10 µM (LOX IMVI): 4.14%
- inhibition at 10 µM (M14): < 0%
- inhibition at 10 µM (MALME-3M): < 0%
- inhibition at 10 µM (MCF7): 18.1%
- inhibition at 10 µM (MDA-MB-468): 7.33%
- inhibition at 10 µM (NCI-H23): < 0%
- inhibition at 10 µM (NCI-H322M): 1.11%
- inhibition at 10 µM (NCI-H460): < 0%
- inhibition at 10 µM (NCI-H522): 9.05%
- inhibition at 10 µM (NCI/ADR-RES): < 0%
- inhibition at 10 µM (OVCAR-3): < 0%
- inhibition at 10 µM (OVCAR-4): < 0%
- inhibition at 10 µM (OVCAR-5): < 0%
- inhibition at 10 µM (PC-3): < 0%
- inhibition at 10 µM (RPMI-8226): 0.53%
- inhibition at 10 µM (RXF 393): < 0%
- inhibition at 10 µM (SF-268): < 0%
- inhibition at 10 µM (SF-295): < 0%
- inhibition at 10 µM (SF-539): < 0%
- inhibition at 10 µM (SK-MEL-28): < 0%
- inhibition at 10 µM (SK-MEL-2): < 0%
- inhibition at 10 µM (SK-MEL-5): < 0%
- inhibition at 10 µM (SK-OV-3): < 0%
- inhibition at 10 µM (SNB-19): 3.77%
- inhibition at 10 µM (SNB-75): < 0%
- inhibition at 10 µM (SR): 12.6%
- inhibition at 10 µM (SW-620): 2.64%
- inhibition at 10 µM (T-47D): 14.2%
- inhibition at 10 µM (U251): < 0%
- inhibition at 10 µM (UACC-62): 17.4%
- inhibition at 10 µM (UO-31): 15.2%
